Common to all, as to assay: combination Emax (second highest fraction inhibited in the dose matrix, 72 h); higher = more inhibition; extreme values may be limits of the assay
The subject of test [1] is SW1990 (Pancreatic Carcinoma). An outline of the steps: (§1)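 Bliss excess equals the observed combination effect minus the expected value EA + EB − EA·EB, where EA and EB are the effects of each agent alone. Combination Emax is the second-highest inhibition within the matrix. Inhibition was scaled from CellTiter-Glo 2.0 luminescence, with 0 set by vehicle wells and 1 by blank wells, after 72 hours of two-drug dosing of cells plated in 1536-well plates.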

The test system of the next test is ES7 (Ewing's Sarcoma). An outline of the steps:
as §1

Test [2] has as its system OCI-AML2 (Acute Myeloid Leukemia). An outline of the steps:
as §1

In test [3] the test system is MFH-ino (Other Solid Carcinomas). An outline of the steps: as §1
Test [4] concerns DOV13 (Ovarian Carcinoma). An outline of the steps: as §1
Test [5] relates to NCI-H1299 (Non-Small Cell Lung Carcinoma). A digest of the protocol:
as §1

For a further test, the system named is NCI-H2595 (Mesothelioma). An outline of the steps:
as §1

For test [6], the system named is SW1088 (Low Grade Glioma). An outline of the steps:
as §1

A further test relates to SN12C (Kidney Carcinoma). An outline of the steps:
as §1

Test [7] deals with U-266 (Plasma Cell Myeloma). A digest of the protocol: as §1
Test [8] concerns NCI-H211 (Small Cell Lung Carcinoma). An outline of the steps: as §1
Test [9] has as its system SW1783 (Low Grade Glioma). A digest of the protocol:
as §1

For test [10], the system named is KARPAS-620 (Plasma Cell Myeloma). A digest of the protocol: as §1
Test [11] deals with MDA-MB-157 (Breast Carcinoma). An outline of the steps:
as §1

For test [12], the system named is LS-513 (Colorectal Carcinoma). A digest of the protocol: as §1
For test [13], the system named is DB (B-Cell Non-Hodgkin's Lymphoma). An outline of the steps:
as §1

The next test concerns SK-N-FI (Neuroblastoma). A digest of the protocol: as §1
Test [14] has as its system IHH-4 (Thyroid Gland Carcinoma). A digest of the protocol:
as §1

The subject of test [15] is KARPAS-1106P (B-Cell Non-Hodgkin's Lymphoma). An outline of the steps: as §1
Test [16] deals with NALM-6 (B-Lymphoblastic Leukemia). An outline of the steps:
as §1

The values below come from the supplement of paper PMC11061612.

Turning to `Cc1c2c(nn1C)CSCc1cc(n(C)n1)CSc1cc(c3ccccc3c1)OCCCc1c(C(=O)O)n(C)c3c-2c(Cl)ccc13` [AZD5991] + Nc1ccn([C@@H]2O[C@H](CO)[C@@H](O)C2(F)F)c(=O)n1 [Gemcitabine] (first compound max 1 µM, 7x7, partner max 0.3 µM), the “combination Emax” value in [1] was 0.353; in the test with ES7 (Ewing's Sarcoma), 0.982; in test [2] it was 1; in test [3], 0.725; in test [4], 0.889; in test [5] it was 0.527. The “combination Emax” value came out at 0.464 with NCI-H2595 (Mesothelioma); 0.197 in test [6]; 0.422 with SN12C (Kidney Carcinoma); 0.944 in [7]; 1 in [8]; 0.673 in [9]. Besides, the “combination Emax” value in test [10] came to 1; in [11], 0.878; in [12], 0.814; in [13] it was 1; in the test with SK-N-FI (Neuroblastoma), 0.457; in [14] it was 1. In addition, the figures for the “combination Emax” value in test [15] and in test [16] were 0.981 and 0.928, respectively.
For the compound `C[C@@H](Nc1cc(F)cc(F)c1)c1cc(C(=O)N(C)C)cc2c(=O)cc(N3CCOCC3)oc12` [AZD8186] + CC(=O)c1c(C)c2cnc(Nc3ccc(N4CCNCC4)cn3)nc2n(C2CCCC2)c1=O [Palbociclib] (first compound max 10 µM, 7x7, partner max 10 µM), the “combination Emax” value in [1] worked out at 0.267; in the test on ES7 (Ewing's Sarcoma), 0.724; in test [2], 0.834; in test [3] it was 0.423; in test [4], 0.484; in [5], 0.497. Also, the “combination Emax” value came to 0.303 with NCI-H2595 (Mesothelioma); 0.724 in test [6]; 0.281 in the test with SN12C (Kidney Carcinoma); 0.155 in test [7]; 0.754 in [8]; 0.617 in [9]. The “combination Emax” value turned out to be 0.775 in test [10]; 0.333 in test [11]; 0.584 in [12]; 0.601 in test [13]; 0.43 in the test on SK-N-FI (Neuroblastoma); 0.426 in test [14]. Also, the “combination Emax” value was found to be 0.791 in test [15] and 0.833 in [16].
`Cc1cc2ncnn2cc1Nc1ncc2c(n1)n(C1CCOCC1)c(=O)n2C` [AZD7648] + COc1cc([C@@H]2c3cc4c(cc3[C@@H](O[C@@H]3O[C@@H]5CO[C@@H](C)O[C@H]5[C@H](O)[C@H]3O)[C@H]3COC(=O)[C@H]23)OCO4)cc(OC)c1O [Etoposide] (first compound max 10 µM, 7x7, partner max 10 µM): the “combination Emax” value was 0.337 in test [1]; 0.977 with ES7 (Ewing's Sarcoma); 1 in test [2]; 0.665 in test [3]; 0.923 in test [4]; 0.649 in test [5]. In addition, the “combination Emax” value was 0.446 in the test on NCI-H2595 (Mesothelioma); 0.574 in test [6]; 0.641 in the test on SN12C (Kidney Carcinoma); 0.581 in test [7]; 0.968 in test [8]; 0.706 in test [9]. Besides, the “combination Emax” value turned out to be 0.786 in [10]; 0.855 in test [11]; 0.662 in test [12]; 0.907 in [13]; 0.368 in the test with SK-N-FI (Neuroblastoma); 0.956 in test [14]. The “combination Emax” value in test [15] turned out to be 0.781; in test [16] it was 1.
